Measured values: ChEMBL document CHEMBL3856212, “Synthesis, anti-proliferative and genotoxicity studies of 6-chloro-5-(2-substituted-ethyl)-1,3-dihydro-2H-indol-2-ones and 6-chloro-5-(2-chloroethyl)-3-(alkyl/ary-2-ylidene)indolin-2-ones” (Eur J Med Chem, 2016)

Tests used:
[1] = Cytotoxicity against human DU145 cells assessed as assessed as growth inhibition at 10^-5 M after 48 hrs by SRB assay relative to control; format: functional; conditions: DU-145, 48 h, read-out: GI
[2] = Cytotoxicity against human SNB75 cells assessed as assessed as growth inhibition at 10^-5 M after 48 hrs by SRB assay relative to control; format: functional; conditions: SNB-75, 48 h, read-out: GI
[3] = Cytotoxicity against human TK10 cells assessed as growth inhibition after 48 hrs by SRB assay; format: functional; conditions: TK-10, 48 h; for CC50: read-out: LD50 (the source's name)
[4] = Cytotoxicity against human IGROV1 cells assessed as growth inhibition after 48 hrs by SRB assay; format: functional; conditions: IGROV-1, 48 h; for CC50: read-out: LD50 (the source's name)
[5] = Cytotoxicity against human NCI-H460 cells assessed as growth inhibition after 48 hrs by SRB assay; format: functional; conditions: NCI-H460, 48 h; for CC50: read-out: LD50 (the source's name)
[6] = Induction of apoptosis in mouse EAC cells at 125 uM after 24 hrs by acridine orange dye-based fluorescence microscopy (reference value: 0.66 +/- 0.33%); format: cell-based; conditions: ehrlich
[7] = Cytotoxicity against human MALME-3M cells assessed as growth inhibition after 48 hrs by SRB assay; format: functional; conditions: for CC50: read-out: LD50 (the source's name)
[8] = Cytotoxicity against human HOP92 cells assessed as growth inhibition after 48 hrs by SRB assay; format: functional; conditions: HOP-92, 48 h; for CC50: read-out: LD50 (the source's name)
[9] = Cytotoxicity against human SK-MEL-5 cells assessed as growth inhibition after 48 hrs by SRB assay; format: functional; conditions: SK-MEL-5, 48 h; for CC50: read-out: LD50 (the source's name)
[10] = Cytotoxicity against human NCI-H226 cells assessed as growth inhibition after 48 hrs by SRB assay; format: functional; conditions: NCI-H226, 48 h; for CC50: read-out: LD50 (the source's name)
[11] = Cytotoxicity against human Hs 578T cells assessed as assessed as growth inhibition at 10^-5 M after 48 hrs by SRB assay relative to control; format: functional; conditions: read-out: GI
[12] = Cytotoxicity against human OVCAR4 cells assessed as growth inhibition after 48 hrs by SRB assay; format: functional; conditions: OVCAR-4, 48 h; for CC50: read-out: LD50 (the source's name)
[13] = Cytotoxicity against human BT549 cells assessed as assessed as growth inhibition at 10^-5 M after 48 hrs by SRB assay relative to control; format: functional; conditions: BT-549, 48 h, read-out: GI
[14] = Cytotoxicity against human SW1222 cells assessed as assessed as growth inhibition at 10^-5 M after 48 hrs by SRB assay relative to control; format: functional; conditions: SW1222, 48 h, read-out: GI
[15] = Cytotoxicity against human UO31 cells assessed as growth inhibition after 48 hrs by SRB assay; format: functional; conditions: UO-31, 48 h; for CC50: read-out: LD50 (the source's name)
[16] = Cytotoxicity against human COLO205 cells assessed as assessed as growth inhibition at 10^-5 M after 48 hrs by SRB assay relative to control; format: functional; conditions: COLO 205, 48 h, read-out: GI

Structure (SMILES) | inhibition of growth at 10 µM [1] | inhibition of growth at 10 µM [2] | GI50 [3] | TGI [3] | CC50 [3] | GI50 [5] | TGI [5] | CC50 [5] | Activity [6] | GI50 [9] | TGI [9] | CC50 [9] | GI50 [10] | TGI [10] | CC50 [10] | inhibition of growth at 10 µM [11] | GI50 [12] | TGI [12] | CC50 [12] | inhibition of growth at 10 µM [13] | further results
O=C1Cc2cc(CCn3cncn3)c(Cl)cc2N1 | 3.54% | 36.5% | 1000 nM | > 1000 nM | > 1000 nM | 6860 nM | > 1000 nM | > 1000 nM | 0.6% | 1010 nM | > 1000 nM | > 1000 nM | 1000 nM | > 1000 nM | > 1000 nM | 71.4% | 1000 nM | > 1000 nM | > 1000 nM | 32% | GI50 [4]: 1000 nM; TGI [4]: > 1000 nM; CC50 [4]: > 1000 nM; GI50 [7]: 1000 nM; TGI [7]: > 1000 nM; CC50 [7]: > 1000 nM; GI50 [8]: 3020 nM; TGI [8]: > 1000 nM; CC50 [8]: > 1000 nM; inhibition of growth at 10 µM [14]: 45.8%; GI50 [15]: 1000 nM; TGI [15]: > 1000 nM; CC50 [15]: > 1000 nM
O=C1Cc2cc(CCn3ccnc3)c(Cl)cc2N1 | 31% | 31.7% | 1000 nM | > 1000 nM | > 1000 nM | 1610 nM | > 1000 nM | > 1000 nM | 0.33% | 8120 nM | > 1000 nM | > 1000 nM | 1000 nM | > 1000 nM | > 1000 nM | 68.9% | 4500 nM | > 1000 nM | > 1000 nM | 30.3% | GI50 [4]: 1000 nM; TGI [4]: > 1000 nM; CC50 [4]: > 1000 nM; GI50 [7]: 7950 nM; TGI [7]: > 1000 nM; CC50 [7]: > 1000 nM; GI50 [8]: 3540 nM; TGI [8]: 9150 nM; CC50 [8]: > 1000 nM; GI50 [15]: 5850 nM; TGI [15]: > 1000 nM; CC50 [15]: > 1000 nM; inhibition of growth at 10 µM [16]: 29.9%
O=C1Cc2cc(CCN3CCNCC3)c(Cl)cc2N1 |  | 38.6% |  |  |  | 2290 nM | > 1000 nM | > 1000 nM | 1% | 5330 nM | > 1000 nM | > 1000 nM | 1000 nM | > 1000 nM | > 1000 nM | 69.9% | 8780 nM | > 1000 nM | > 1000 nM | 40.9% | inhibition of growth at 10 µM [14]: 59.2%; inhibition of growth at 10 µM [16]: 40.1%
